Results taken from publication PMC9484358 (Archives of Pharmacal Research, 2022).

Tested on: SARS-CoV-2 spike pseudovirus
Experiment: organism not typed
Type: cell-based

Compound: CC1(C)[C@@H](O[C@H]2O[C@H](C(=O)O)[C@@H](O)[C@H](O)[C@H]2O[C@@H]2O[C@H](C(=O)O)[C@@H](O)[C@H](O)[C@H]2O)CC[C@]2(C)[C@H]3C(=O)C=C4[C@@H]5C[C@@](C)(C(=O)O)CC[C@]5(C)CC[C@@]4(C)[C@]3(C)CC[C@@H]12 [Glycyrrhizic acid]
- inhibition at 50 µM (read-out: Inhibition rate (%), 50 µM): 4.01 ± 7.03%
- inhibition at 100 µM (read-out: Inhibition rate (%), 100 µM): 11.2 ± 6.96%

Compound: Cc1cc(-c2ccc(/N=N/c3ccc4c(S(=O)(=O)O)cc(S(=O)(=O)O)c(N)c4c3O)c(C)c2)ccc1/N=N/c1ccc2c(S(=O)(=O)O)cc(S(=O)(=O)O)c(N)c2c1O [Evans blue]
- IC50 (read-out: IC50 value): 26.9 µM
